Results as given in patent publication US9611267B2, “Substituted tricyclic compounds as FGFR inhibitors” (Incyte Corporation, priority 2012, dated 2017).

Tests used:
Format in all cases: biochemical
FGFR1 = FGFR1 (Homo sapiens (Human), UniProt P11362); assay: FGFR enzymatic assay (FRET peptide phosphorylation), FGFR1; conditions: FGFR1 enzyme 0.02 nM, ATP 210 μM
Protocol: (§1) The inhibitor potency of the exemplified compounds was measured in an enzyme assay that measures peptide phosphorylation using FRET measurements to detect product formation. Inhibitors were serially diluted in DMSO and a volume of 0.5 μL was transferred to the wells of a 384-well plate. For FGFR3, a 10 μL volume of FGFR3 enzyme (Millipore) diluted in assay buffer (50 mM HEPES, 10 mM MgCl2, 1 mM EGTA, 0.01% Tween-20, 5 mM DTT, pH 7.5) was added to the plate and pre-incubated for 5-10 minutes. Appropriate controls (enzyme blank and enzyme with no inhibitor) were included on the plate. […] The plate was incubated at 25° C. for 1 hr. […] The plate was allowed to equilibrate for ˜1 hr before scanning the wells on a PheraStar plate reader (BMG Labtech).
(§2) The enzymes were purchased from Millipore or Invitrogen.
(§3) GraphPad prism3 was used to analyze the data. The IC50 values were derived by fitting the data to the equation for a sigmoidal dose-response with a variable slope. Y=Bottom+(Top−Bottom)/(1+10^((LogIC50−X)*HillSlope)) where X is the logarithm of concentration and Y is the response.

FGFR3 = FGFR3 (Homo sapiens (Human), UniProt P22607); assay: FGFR enzymatic assay (FRET peptide phosphorylation), FGFR3; conditions: FGFR3 enzyme (Millipore), ATP 140 μM
Chain of FGFR3 (P22607 23-806): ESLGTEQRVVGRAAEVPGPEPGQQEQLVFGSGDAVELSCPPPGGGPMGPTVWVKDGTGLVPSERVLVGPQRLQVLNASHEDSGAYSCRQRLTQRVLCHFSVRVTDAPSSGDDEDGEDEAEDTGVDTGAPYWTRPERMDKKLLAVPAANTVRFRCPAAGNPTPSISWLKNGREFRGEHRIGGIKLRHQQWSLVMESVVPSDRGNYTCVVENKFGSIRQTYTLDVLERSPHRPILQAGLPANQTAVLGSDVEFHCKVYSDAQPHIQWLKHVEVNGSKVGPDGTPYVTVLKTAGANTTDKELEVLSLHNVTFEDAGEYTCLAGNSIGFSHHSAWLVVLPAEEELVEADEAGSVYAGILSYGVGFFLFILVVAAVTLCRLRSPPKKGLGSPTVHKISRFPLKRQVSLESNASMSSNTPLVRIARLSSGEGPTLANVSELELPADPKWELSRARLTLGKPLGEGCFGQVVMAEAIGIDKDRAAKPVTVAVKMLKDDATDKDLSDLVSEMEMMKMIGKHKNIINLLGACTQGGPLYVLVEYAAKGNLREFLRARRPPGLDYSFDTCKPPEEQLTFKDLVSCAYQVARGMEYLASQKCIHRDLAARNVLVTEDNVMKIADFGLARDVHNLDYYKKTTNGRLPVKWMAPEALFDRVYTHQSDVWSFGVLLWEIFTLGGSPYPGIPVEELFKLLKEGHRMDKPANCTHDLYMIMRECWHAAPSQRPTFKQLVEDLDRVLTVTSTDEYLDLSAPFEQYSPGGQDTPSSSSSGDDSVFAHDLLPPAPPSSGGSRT
Protocol: as §1, §3

FGFR2 = FGFR2 (Homo sapiens (Human), UniProt P21802); assay: FGFR enzymatic assay (FRET peptide phosphorylation), FGFR2; conditions: FGFR2 enzyme 0.01 nM, ATP 100 μM
Chain of FGFR2 (P21802 22-821): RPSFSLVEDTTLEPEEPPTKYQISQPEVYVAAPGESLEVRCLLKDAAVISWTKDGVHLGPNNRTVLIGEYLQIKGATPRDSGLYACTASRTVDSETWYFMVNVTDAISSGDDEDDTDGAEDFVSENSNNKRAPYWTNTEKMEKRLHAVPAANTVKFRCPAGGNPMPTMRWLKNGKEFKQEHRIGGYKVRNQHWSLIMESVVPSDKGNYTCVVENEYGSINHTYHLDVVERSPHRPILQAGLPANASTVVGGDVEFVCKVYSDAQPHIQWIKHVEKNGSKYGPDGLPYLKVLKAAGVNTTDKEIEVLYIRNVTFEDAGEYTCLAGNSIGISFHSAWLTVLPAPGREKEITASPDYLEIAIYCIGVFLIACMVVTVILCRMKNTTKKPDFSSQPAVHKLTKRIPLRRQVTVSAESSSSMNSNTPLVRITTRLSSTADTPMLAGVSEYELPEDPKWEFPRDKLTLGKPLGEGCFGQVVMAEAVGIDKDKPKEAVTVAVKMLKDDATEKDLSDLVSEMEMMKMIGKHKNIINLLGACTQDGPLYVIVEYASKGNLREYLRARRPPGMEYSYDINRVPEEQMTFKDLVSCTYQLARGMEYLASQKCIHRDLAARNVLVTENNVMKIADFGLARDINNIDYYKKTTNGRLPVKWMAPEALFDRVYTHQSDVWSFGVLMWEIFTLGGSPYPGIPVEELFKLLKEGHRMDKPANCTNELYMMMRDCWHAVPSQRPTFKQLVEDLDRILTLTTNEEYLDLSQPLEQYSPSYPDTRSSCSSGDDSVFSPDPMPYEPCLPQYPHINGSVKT
Protocol: as §1, §2, §3

Chain of FGFR1 (P11362 22-822): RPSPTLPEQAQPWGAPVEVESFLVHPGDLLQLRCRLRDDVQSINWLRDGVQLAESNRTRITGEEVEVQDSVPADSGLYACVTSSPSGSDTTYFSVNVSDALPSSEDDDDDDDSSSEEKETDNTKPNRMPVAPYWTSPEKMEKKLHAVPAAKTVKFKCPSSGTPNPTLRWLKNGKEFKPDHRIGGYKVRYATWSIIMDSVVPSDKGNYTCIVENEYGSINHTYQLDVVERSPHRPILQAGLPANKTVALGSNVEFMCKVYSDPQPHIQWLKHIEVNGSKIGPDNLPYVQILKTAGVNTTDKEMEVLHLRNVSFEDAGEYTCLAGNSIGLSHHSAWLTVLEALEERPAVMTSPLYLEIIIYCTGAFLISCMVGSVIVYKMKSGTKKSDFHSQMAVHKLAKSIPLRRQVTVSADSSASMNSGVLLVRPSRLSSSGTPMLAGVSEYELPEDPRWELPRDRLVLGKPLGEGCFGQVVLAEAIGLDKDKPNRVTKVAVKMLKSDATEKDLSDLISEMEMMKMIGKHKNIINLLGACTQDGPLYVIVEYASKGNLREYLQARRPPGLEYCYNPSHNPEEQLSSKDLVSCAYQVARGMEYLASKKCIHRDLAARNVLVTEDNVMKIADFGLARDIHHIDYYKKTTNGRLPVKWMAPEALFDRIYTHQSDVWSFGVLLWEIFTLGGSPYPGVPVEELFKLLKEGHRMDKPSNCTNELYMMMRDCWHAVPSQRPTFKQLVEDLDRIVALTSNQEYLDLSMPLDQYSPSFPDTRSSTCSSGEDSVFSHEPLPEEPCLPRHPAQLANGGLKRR

Row | SMILES | IC50 (FGFR1) | IC50 (FGFR3) | IC50 (FGFR2)
1 | COc1cc(OC)c(Cl)c(N2Cc3cnc4[nH]ccc4c3N(c3cccnc3)C2=O)c1F [Example 108, 3-(2-chloro-6-fluoro-3,5-dimethoxyphenyl)-1-pyridin-3-yl-1,3,4,7-tetrahydro-2H-pyrrolo[3′,2′:5,6]pyrido[4,3-d]pyrimidin-2-one] | < 100 nM | < 100 nM | < 100 nM
2 | COc1cc(OC)c(F)c(N2Cc3cnc4[nH]c(CN5CCCC(F)(F)C5)cc4c3N(C)C2=O)c1F [Example 113, 3-(2,6-difluoro-3,5-dimethoxyphenyl)-8-[(3,3-difluoropiperidin-1-yl)methyl]-1-methyl-1,3,4,7-tetrahydro-2H-pyrrolo[3′,2′:5,6]pyrido[4,3-d]pyrimidin-2-one] | < 100 nM | < 100 nM | < 100 nM
3 | CCN1C(=O)N(c2c(F)c(OC)cc(OC)c2F)Cc2cnc3[nH]ncc3c21 [Example 57, 3-(2,6-Difluoro-3,5-dimethoxyphenyl)-1-ethyl-1,3,4,7-tetrahydro-2H-pyrazolo[4′,3′:5,6]pyrido[4,3-d]pyrimidin-2-one] | < 100 nM | < 100 nM | < 100 nM
4 | COc1cc(OC)c(F)c(N2Cc3cnc4[nH]c(C(=O)N5CCN(C)CC5)cc4c3N(C)C2=O)c1F [Example 40, 3-(2,6-Difluoro-3,5-dimethoxyphenyl)-1-methyl-8-[(4-methylpiperazin-1-yl)carbonyl]-1,3,4,7-tetrahydro-2H-pyrrolo[3′,2′:5,6]pyrido[4,3-d]pyrimidin-2-one] | < 100 nM | < 100 nM | < 100 nM
5 | COc1cc(OC)cc(N2Cc3cnc4[nH]ccc4c3NC2=O)c1 [Example 2, 3-(3,5-Dimethoxyphenyl)-1,3,4,7-tetrahydro-2H-pyrrolo[3′,2′:5,6]pyrido[4,3-d]pyrimidin-2-one] | < 100 nM | < 100 nM | < 100 nM
6 | COc1cc(OC)c(F)c(N2Cc3cnc4c(c3N(C3CC3)C2=O)CC(=O)N4)c1F [Example 48, 1-Cyclopropyl-3-(2,6-difluoro-3,5-dimethoxyphenyl)-3,4,7,9-tetrahydro-1H-pyrrolo[3′,2′:5,6]pyrido[4,3-d]pyrimidine-2,8-dione] | < 100 nM | < 100 nM | < 100 nM
7 | COc1cc(OC)cc(N2Cc3cnc4[nH]ccc4c3N(C)C2=O)c1 [Example 1, 3-(3,5-Dimethoxyphenyl)-1-methyl-1,3,4,7-tetrahydro-2H-pyrrolo[3′,2′:5,6]pyrido[4,3-d]pyrimidin-2-one] | < 100 nM | < 100 nM | < 100 nM
8 | CCN1C(=O)N(c2c(F)c(OC)cc(OC)c2F)Cc2cnc3c(c21)CC(=O)N3 [Example 49, 3-(2,6-Difluoro-3,5-dimethoxyphenyl)-1-ethyl-3,4,7,9-tetrahydro-1H-pyrrolo[3′,2′:5,6]pyrido[4,3-d]pyrimidine-2,8-dione] | < 100 nM | < 100 nM | < 100 nM
9 | COc1cc(OC)c(F)c(N2Cc3cnc4[nH]c(CCCN5CCN(C6CC6)CC5)cc4c3N(C)C2=O)c1F [Example 118, 8-[3-(4-cyclopropylpiperazin-1-yl)propyl]-3-(2,6-difluoro-3,5-dimethoxyphenyl)-1-methyl-1,3,4,7-tetrahydro-2H-pyrrolo[3′,2′:5,6]pyrido[4,3-d]pyrimidin-2-one] | < 100 nM | < 100 nM | < 100 nM
10 | CCN1CCN(Cc2cc3c4c(cnc3[nH]2)CN(c2c(F)c(OC)cc(OC)c2F)C(=O)N4C)CC1 [Example 70, 3-(2,6-difluoro-3,5-dimethoxyphenyl)-8-[(4-ethylpiperazin-1-yl)methyl]-1-methyl-1,3,4,7-tetrahydro-2H-pyrrolo[3′,2′:5,6]pyrido[4,3-d]pyrimidin-2-one] | < 100 nM | < 100 nM | < 100 nM
11 | CNC(=O)c1cc2c3c(cnc2[nH]1)CN(c1cc(OC)cc(OC)c1Cl)C(=O)N3C [Example 23, 3-(2-Chloro-3,5-dimethoxyphenyl)-N,1-dimethyl-2-oxo-2,3,4,7-tetrahydro-1H-pyrrolo[3′,2′:5,6]pyrido[4,3-d]pyrimidine-8-carboxamide] | < 100 nM | < 100 nM | < 100 nM
12 | COc1cc(OC)c(F)c(N2Cc3cnc4[nH]ccc4c3N(c3cccc(F)c3F)C2=O)c1F [Example 76, 3-(2,6-difluoro-3,5-dimethoxyphenyl)-1-(2,3-difluorophenyl)-1,3,4,7-tetrahydro-2H-pyrrolo[3′,2′:5,6]pyrido[4,3-d]pyrimidin-2-one] | < 100 nM | < 100 nM | < 100 nM
13 | COc1cc(OC)c(F)c(N2Cc3cnc4[nH]c(CCN5CCOCC5)cc4c3N(CCO)C2=O)c1F [Example 146, 3-(2,6-difluoro-3,5-dimethoxyphenyl)-1-(2-hydroxyethyl)-8-(2-morpholin-4-ylethyl)-1,3,4,7-tetrahydro-2H-pyrrolo[3′,2′:5,6]pyrido[4,3-d]pyrimidin-2-one] | < 100 nM | < 100 nM | < 100 nM
14 | COc1cc(OC)c(F)c(N2Cc3cnc4[nH]ncc4c3N(CCO)C2=O)c1F [Example 58, 3-(2,6-Difluoro-3,5-dimethoxyphenyl)-1-(2-hydroxyethyl)-1,3,4,7-tetrahydro-2H-pyrazolo[4′,3′:5,6]pyrido[4,3-d]pyrimidin-2-one] | < 100 nM | < 100 nM | < 100 nM
15 | COc1cc(OC)c(F)c(N2Cc3cnc4[nH]ncc4c3N(c3cccc(C#N)c3)C2=O)c1F [Example 93, 3-[3-(2,6-difluoro-3,5-dimethoxyphenyl)-2-oxo-2,3,4,7-tetrahydro-1H-pyrazolo[4′,3′:5,6]pyrido[4,3-d]pyrimidin-1-yl]benzonitrile] | < 100 nM | < 100 nM | < 100 nM

Other lines, results leading:

Row | IC50 (FGFR1) | IC50 (FGFR3) | IC50 (FGFR2) | SMILES
16 | < 100 nM | < 100 nM | < 100 nM | COc1cc(OC)c(F)c(N2Cc3cnc4[nH]c(CN5CCN(C)CC5)cc4c3N(c3ccc(F)cc3)C2=O)c1F [Example 190, 3-(2,6-difluoro-3,5-dimethoxyphenyl)-1-(4-fluorophenyl)-8-[(4-methylpiperazin-1-yl)methyl]-1,3,4,7-tetrahydro-2H-pyrrolo[3′,2′:5,6]pyrido[4,3-d]pyrimidin-2-one]
17 | < 100 nM | < 100 nM | < 100 nM | CCCN1C(=O)N(c2c(F)c(OC)cc(OC)c2F)Cc2cnc3[nH]c(CN4CCOCC4)cc3c21 [Example 184, 3-(2,6-difluoro-3,5-dimethoxyphenyl)-8-(morpholin-4-ylmethyl)-1-propyl-1,3,4,7-tetrahydro-2H-pyrrolo[3′,2′:5,6]pyrido[4,3-d]pyrimidin-2-one]
18 | < 100 nM | < 100 nM | < 100 nM | CCN1C(=O)N(c2c(F)c(OC)cc(OC)c2F)Cc2cnc3[nH]c(Cn4ccccc4=O)cc3c21 [Example 219, 3-(2,6-difluoro-3,5-dimethoxyphenyl)-1-ethyl-8-[(2-oxopyridin-1(2H)-yl)methyl]-1,3,4,7-tetrahydro-2H-pyrrolo[3′,2′:5,6]pyrido[4,3-d]pyrimidin-2-one]
19 | < 100 nM | < 100 nM | < 100 nM | CCN1CCN(CCc2cc3c4c(cnc3[nH]2)CN(c2c(F)c(OC)cc(OC)c2F)C(=O)C4(C)C)CC1 [Example 159, 7-(2,6-difluoro-3,5-dimethoxyphenyl)-2-[2-(4-ethylpiperazin-1-yl)ethyl]-9,9-dimethyl-3,6,7,9-tetrahydro-8H-pyrrolo[2,3-c]-2,7-naphthyridin-8-one]
20 | < 100 nM | < 100 nM | < 100 nM | COc1cc(CN2C(=O)N(c3c(F)c(OC)cc(OC)c3F)Cc3cnc4[nH]ncc4c32)ccn1 [Example 177, 3-(2,6-difluoro-3,5-dimethoxyphenyl)-1-[(2-methoxypyridin-4-yl)methyl]-1,3,4,7-tetrahydro-2H-pyrazolo[4′,3′:5,6]pyrido[4,3-d]pyrimidin-2-one]
21 | < 100 nM | < 100 nM | < 100 nM | COc1cc(OC)c(F)c(N2Cc3cnc4[nH]ncc4c3N(Cc3ccon3)C2=O)c1F [Example 162, 3-(2,6-Difluoro-3,5-dimethoxyphenyl)-1-(isoxazol-3-ylmethyl)-1,3,4,7-tetrahydro-2H-pyrazolo[4′,3′:5,6]pyrido[4,3-d]pyrimidin-2-one]
22 | < 100 nM | < 100 nM | < 100 nM | COc1cc(OC)c(F)c(N2Cc3cnc4[nH]c(CCN5CC(F)C5)cc4c3N(CCO)C2=O)c1F [Example 210, 3-(2,6-difluoro-3,5-dimethoxyphenyl)-8-[2-(3-fluoroazetidin-1-yl)ethyl]-1-(2-hydroxyethyl)-1,3,4,7-tetrahydro-2H-pyrrolo[3′,2′:5,6]pyrido[4,3-d]pyrimidin-2-one]
23 | < 100 nM | < 100 nM | < 100 nM | COc1cc(OC)c(F)c(N2Cc3cnc4[nH]c(CN5CCN(C)CC5)cc4c3N(c3cccc(F)c3F)C2=O)c1F [Example 192, 3-(2,6-difluoro-3,5-dimethoxyphenyl)-1-(2,3-difluorophenyl)-8-[(4-methylpiperazin-1-yl)methyl]-1,3,4,7-tetrahydro-2H-pyrrolo[3′,2′:5,6]pyrido[4,3-d]pyrimidin-2-one]
